# Measured values reported in ChEMBL document CHEMBL3259645, “Design and synthesis of spirocyclic compounds as HCV replication inhibitors by targeting viral NS4B protein” (Bioorg Med Chem Lett, 2014).
# Experiments:
# [1] = Cytotoxicity against human HuH7 cells infected with Hepatitis C virus genotype 1b; type: cell-based, Huh-7
# Hepatitis C virus [2] = test: Antiviral activity against Hepatitis C virus genotype 1a infected in human HuH7 cells assessed as inhibition of replicon replication after 48 hrs by luciferase reporter gene assay; type: functional, cell-based, Hepacivirus hominis; details: subtype 1a, Huh-7, 48 h
# Hepatitis C virus [3] = test: Antiviral activity against Hepatitis C virus genotype 1b infected in human HuH7 cells assessed as inhibition of replicon replication after 48 hrs by luciferase reporter gene assay; type: functional, cell-based, Hepacivirus hominis; details: Huh-7, 48 h
# Hepatitis C virus [4] = test: Antiviral activity against Hepatitis C virus genotype 2a; type: functional, Hepacivirus hominis
# Hepatitis C virus [5] = test: Antiviral activity against Hepatitis C virus genotype 1b harboring NS4B V105M mutant infected in human HuH7 cells assessed as inhibition of replicon replication after 48 hrs by luciferase reporter gene assay; type: functional, cell-based, Hepacivirus hominis; details: Huh-7, 48 h
# Hepatitis C virus [6] = test: Antiviral activity against Hepatitis C virus genotype 1b harboring NS4B H94N mutant infected in human HuH7 cells assessed as inhibition of replicon replication after 48 hrs by luciferase reporter gene assay; type: functional, cell-based, Hepacivirus hominis; details: Huh-7, 48 h
# [7] = Clearance in rat at 1 mg/kg, iv; type: ADME, organism-based; parameters: dose 1 mg/kg, route intravenous; details: in vivo
# [8] = Volume of distribution at steady state in rat at 1 mg/kg, iv and 5 mg/kg, po; type: ADME, organism-based; details: in vivo, read-out: Vdss
# [9] = AUC (0 to 24 hrs) in rat at 5 mg/kg, po; type: ADME, organism-based; parameters: time < 24 hr, dose 5 mg/kg, route oral; details: plasma
# [10] = Half life in human hepatocytes; type: ADME, cell-based, Hepatocyte
# [11] = Cmax in rat at 5 mg/kg, po; type: ADME, organism-based; parameters: dose 5 mg/kg, route oral; details: in vivo
# [12] = Half life in rat hepatocytes; type: ADME, cell-based, Hepatocyte
# Hepatitis C virus [13] = test: Ratio of EC50 for Hepatitis C virus genotype 1b harboring NS4B V105M mutant infected in human HuH7 cells to EC50 for wild type Hepatitis C virus genotype 1b infected in human HuH7 cells; type: functional, Hepacivirus hominis, Huh-7
# [14] = Oral bioavailability in rat at 5 mg/kg; type: ADME, organism-based; details: in vivo
# Hepatitis C virus [15] = test: Ratio of EC50 for Hepatitis C virus genotype 1b harboring NS4B H94N mutant infected in human HuH7 cells to EC50 for wild type Hepatitis C virus genotype 1b infected in human HuH7 cells; type: functional, Hepacivirus hominis, Huh-7
# [16] = Displacement of biotinylated anti-His antibody from C-terminal 6X His-tagged Hepatitis C virus genotype 1b NS4B expressed in baculovirus-infected Sf9 cells by microplate assay; parameters: species or system Hepatitis C virus subtype 1b
# [17] = Kinetic solubility of the compound at pH 7.4; type: physicochemical; details: buffer, read-out: Kinetic_solubility
SMILES,CC50 [1],EC50 (Hepatitis C virus [2]),EC50 (Hepatitis C virus [3]),other results
O=C(c1nn2c(C(F)(F)F)cc(C3CC3)cc2c1Cl)N1CCC2(OCC3(CC3)CO2)C(O)C1 (stereo not given),> 50 µM,4.3 nM,2.2 nM,–
O=C(c1nc2c(C(F)(F)F)cc(Br)cn2c1Cl)N1CCC(N2CCOC2=O)CC1,–,31.4 nM,45.5 nM,–
O=C(c1nn2c(C(F)(F)F)cc(C3CC3)cc2c1Cl)N1CCCC2(C1)OCCCO2,> 50 µM,> 500 nM,> 500 nM,–
O=C(c1nn2c(C(F)(F)F)cc(C3CC3)cc2c1Cl)N1CCC2(CC1)OCCO2,> 50 µM,299 nM,161 nM,–
O=C(c1nn2c(C(F)(F)F)cc(C3CC3)cc2c1Cl)N1CCC2(CC1)OCCCO2,> 50 µM,33.8 nM,6.1 nM,–
O=C(c1nn2c(C(F)(F)F)cc(C3CC3)cc2c1Cl)N1CCC2(CC1)OCCCCO2,> 25 µM,46.3 nM,8 nM,–
CC1COC2(CCN(C(=O)c3nn4c(C(F)(F)F)cc(C5CC5)cc4c3Cl)CC2)OC1,> 50 µM,7.4 nM,1.2 nM,–
CC1(C)COC2(CCN(C(=O)c3nn4c(C(F)(F)F)cc(C5CC5)cc4c3Cl)CC2)OC1,> 25 µM,23.8 nM,9.8 nM,–
O=C(c1nn2c(C(F)(F)F)cc(C3CC3)cc2c1Cl)N1CCC2(CC1)OCC(c1ccccc1)CO2,> 50 µM,42.2 nM,209 nM,–
O=C(c1nn2c(C(F)(F)F)cc(C3CC3)cc2c1Cl)N1CCC2(CC1)OCC(O)CO2,> 50 µM,19.5 nM,13.8 nM,–
O=C1COC2(CCN(C(=O)c3nn4c(C(F)(F)F)cc(C5CC5)cc4c3Cl)CC2)OC1,> 50 µM,18 nM,19.1 nM,–
O=C(c1nn2c(C(F)(F)F)cc(C3CC3)cc2c1Cl)N1CCC2(CC1)OCC1(CC1)CO2,> 50 µM,9 nM,4.1 nM,EC50 (Hepatitis C virus [4]): 6.84 µM; EC50 (Hepatitis C virus [5]): 67.6 nM; EC50 (Hepatitis C virus [6]): 24.3 nM; clearance [7]: 37.8 mL/min/kg; Vd [8]: 4.5 L/kg; AUC(0-t) at 24 h [9]: 693 ng·h/mL; half-life [10]: 30 min; Cmax [11]: 254 ng/mL; half-life [12]: < 15 min; Ratio EC50 (Hepatitis C virus [13]): 16.5; bioavailability [14]: 29%; Ratio EC50 (Hepatitis C virus [15]): 5.9; IC50 [16]: 32 nM; solubility kinetic [17]: 105 µg/mL
O=C(c1nn2c(C(F)(F)F)cc(C3CC3)cc2c1Cl)N1CCC2(CC1)OCC1(CCC1)CO2,> 50 µM,5.1 nM,7.6 nM,–
O=C(c1nn2c(C(F)(F)F)cc(C3CC3)cc2c1Cl)N1CCC2(CC1)OCC1(CO2)CC(O)C1,> 50 µM,2.2 nM,14.2 nM,–
O=C(c1nn2c(C(F)(F)F)cc(C3CC3)cc2c1Cl)N1CCC2(CC1)OCC1(COC1)CO2,> 50 µM,14.4 nM,3.2 nM,–
O=C(c1nn2c(C(F)(F)F)cc(C3CC3)cc2c1Cl)N1CCC2(OCC3(CC3)CO2)[C@@H](O)C1,> 50 µM,32.5 nM,8.2 nM,–
O=C(c1nn2c(C(F)(F)F)cc(C3CC3)cc2c1Cl)N1CCC2(OCC3(CC3)CO2)[C@H](O)C1,> 50 µM,1.5 nM,1.2 nM,EC50 (Hepatitis C virus [4]): 11.3 µM; EC50 (Hepatitis C virus [5]): 172 nM; EC50 (Hepatitis C virus [6]): 35.9 nM; clearance [7]: 35.7 mL/min/kg; Vd [8]: 0.8 L/kg; AUC(0-t) at 24 h [9]: 2790 ng·h/mL; half-life [10]: 50 min; Cmax [11]: 1130 ng/mL; half-life [12]: 28 min; Ratio EC50 (Hepatitis C virus [13]): 143; bioavailability [14]: > 100%; Ratio EC50 (Hepatitis C virus [15]): 29.9; IC50 [16]: 10.2 nM; solubility kinetic [17]: 323 µg/mL
O=C(c1nn2c(C(F)(F)F)cc(C3CC3)cc2c1Cl)N1CCC2(OCC3(CC3)CO2)C(=O)C1,> 50 µM,5.1 nM,3.8 nM,–
O=C1NCC2(CCN(C(=O)c3nn4c(C(F)(F)F)cc(C5CC5)cc4c3Cl)CC2)O1,> 50 µM,166 nM,55.4 nM,–
CN1CC2(CCN(C(=O)c3nn4c(C(F)(F)F)cc(C5CC5)cc4c3Cl)CC2)OC1=O,> 50 µM,2 nM,3.4 nM,EC50 (Hepatitis C virus [4]): 6.84 µM; EC50 (Hepatitis C virus [5]): 20.4 nM; EC50 (Hepatitis C virus [6]): 42.7 nM; clearance [7]: 56.5 mL/min/kg; Vd [8]: 2.1 L/kg; AUC(0-t) at 24 h [9]: 1060 ng·h/mL; half-life [10]: 66 min; Cmax [11]: 269 ng/mL; half-life [12]: 80 min; Ratio EC50 (Hepatitis C virus [13]): 6; bioavailability [14]: 72%; Ratio EC50 (Hepatitis C virus [15]): 12.5; IC50 [16]: 23.4 nM; solubility kinetic [17]: 267 µg/mL
CCN1CC2(CCN(C(=O)c3nn4c(C(F)(F)F)cc(C5CC5)cc4c3Cl)CC2)OC1=O,> 50 µM,20.6 nM,5.9 nM,–
O=C1OC2(CCN(C(=O)c3nn4c(C(F)(F)F)cc(C5CC5)cc4c3Cl)CC2)CN1CCO,> 50 µM,23.2 nM,78.5 nM,–
O=C1OC2(CCN(C(=O)c3nn4c(C(F)(F)F)cc(C5CC5)cc4c3Cl)CC2)CN1CC1CC1,> 50 µM,18.1 nM,23.4 nM,–
O=C1OC2(CCN(C(=O)c3nn4c(C(F)(F)F)cc(C5CC5)cc4c3Cl)CC2)CN1Cc1ccccc1,> 50 µM,427 nM,457 nM,–
O=C1CC2(CCN(C(=O)c3nn4c(C(F)(F)F)cc(C5CC5)cc4c3Cl)CC2)CN1,> 50 µM,441 nM,1580 nM,–
CN1CC2(CCN(C(=O)c3nn4c(C(F)(F)F)cc(C5CC5)cc4c3Cl)CC2)CC1=O,> 50 µM,184 nM,69.2 nM,–
CN1C[C@@]2(CCN(C(=O)c3nn4c(C(F)(F)F)cc(C5CC5)cc4c3Cl)C[C@H]2O)OC1=O,> 50 µM,14.5 nM,7 nM,–
CN1C[C@]2(CCN(C(=O)c3nn4c(C(F)(F)F)cc(C5CC5)cc4c3Cl)C[C@@H]2O)OC1=O,> 50 µM,3560 nM,3990 nM,–
CN1C[C@@]2(CCN(C(=O)c3nn4c(C(F)(F)F)cc(C5CC5)cc4c3Cl)C[C@@H]2O)OC1=O,> 50 µM,10.9 nM,6.1 nM,EC50 (Hepatitis C virus [4]): 38 µM; EC50 (Hepatitis C virus [5]): 1130 nM; EC50 (Hepatitis C virus [6]): 175 nM; clearance [7]: 25.7 mL/min/kg; Vd [8]: 2 L/kg; AUC(0-t) at 24 h [9]: 1530 ng·h/mL; half-life [10]: 123 min; Cmax [11]: 344 ng/mL; half-life [12]: 132 min; Ratio EC50 (Hepatitis C virus [13]): 185; bioavailability [14]: 49%; Ratio EC50 (Hepatitis C virus [15]): 27.3; IC50 [16]: 30.4 nM; solubility kinetic [17]: 310 µg/mL
CN1C[C@]2(CCN(C(=O)c3nn4c(C(F)(F)F)cc(C5CC5)cc4c3Cl)C[C@H]2O)OC1=O,> 50 µM,16.7 nM,7.2 nM,–
